The values that follow come from ChEMBL document CHEMBL1201862, “PubChem BioAssay data set” (2004).

Where a name gives a salt, the structure may show the parent alone.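 These data come from cells grown in 96-well plates and exposed to compound for 48 hours at five concentrations. At the GI50, growth is halved.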 Active and inactive are the calls of the source. No stated cut-off is given here; in the data, active = GI50 up to about 1.1 µM and inactive = higher. Square brackets hold non-standard residues; d marks the D form. Peptide text beside a SMILES is read from it.

Holding throughout (test): growth of human tumour cells (NCI), 48 h
The test system of assay [1] is 786-0.
Assay [2] relates to ACHN.
In assay [3] the test system is CAKI-1.
For assay [4], the system named is COLO 205.
The subject of assay [5] is HCT-116.
The subject of assay [6] is IGROV-1.
For assay [7], the system named is MDA-MB-435.
The test system of assay [8] is NCI-H226.
The test system of assay [9] is NCI-H460.
The subject of assay [10] is OVCAR-4.
Assay [11] deals with OVCAR-8.
For assay [12], the system named is PC-3.
The test system of assay [13] is RXF 393.
The test system of assay [14] is SF-268.
In assay [15] the test system is SF-295.
The subject of assay [16] is SR.
For assay [17], the system named is TK-10.
For assay [18], the system named is UACC-257.
In assay [19] the test system is UO-31.

Take `CCOC(=O)C[n+]1cccc(C2(c3cc4ccccc4[nH]3)OCCO2)c1`: the GI50 in [1], in assay [2], in assay [3], in assay [4], in assay [5] and in assay [6] was > 100 µM (inactive) in each case. Also, the GI50 in assay [7], in assay [8], in assay [9], in assay [10], in assay [11] and in assay [12] was > 100 µM (inactive) in each case. In addition, the GI50 in assay [13], in assay [14], in [15], in assay [16], in assay [17] and in assay [18] was > 100 µM (inactive) throughout. Moreover, in [19], the GI50 is > 100 µM (inactive).

`NCCCCN` [PUTRESCINE HYDROCHLORIDE]: the GI50 in assay [1] was > 100 µM (inactive); in assay [2], > 100 µM (inactive); in assay [3], 15 µM (inactive); in assay [4], > 100 µM (inactive); in assay [5], > 100 µM (inactive); in [6], > 100 µM (inactive). The GI50 in assay [7] is 8.36 µM (inactive); in [8] it was > 100 µM (inactive); in [9], > 100 µM (inactive); in assay [10], 19.4 µM (inactive); in assay [11] it was > 100 µM (inactive); in [12] it was > 100 µM (inactive). For the same compound, the GI50 in [13], in assay [14], in [15], in [16], in [17] and in assay [18] was > 100 µM (inactive) in each case. For the same compound, the GI50 in assay [19] was > 100 µM (inactive).

Turning to `N=C(N)NCCC[C@H]1NC(=O)[C@@H](CCC(=O)O)NC(=O)[C@@H](CC(=O)O)NC(=O)[C@@H](CCC(=O)O)NC(=O)[C@H](Cc2c[nH]c3ccccc23)NC1=O` (cyclo(W[dE][dD][dE][dR])), the GI50 in [1], in assay [2], in [3], in [4], in assay [5] and in [6] was > 7.5 µM (inactive) each time. Besides, the GI50 in [7] was > 7.5 µM (inactive); in [8], > 7.5 µM (inactive); in [9] it was > 7.5 µM (inactive); in [10] it was > 7.5 µM (inactive); in assay [11] it was > 7.5 µM (inactive); in assay [12], 0.351 µM (active). Besides, the GI50 in assay [13], in [14], in [15], in assay [16], in [17] and in assay [18] was > 7.5 µM (inactive) throughout. Moreover, the GI50 in assay [19] is > 7.5 µM (inactive).

For the compound `CC(O)c1c2c(cc3c1CC1(C3)Cc3cc4c(c(C(C)O)c3C1)CCC4)CCC2` (stereo not drawn), the GI50 in assay [1] was 14.8 µM (inactive); in assay [2] it was 11.2 µM (inactive); in assay [4], 13.4 µM (inactive); in assay [5], 12.1 µM (inactive); in [6], 20.3 µM (inactive); in [7] it was 15.8 µM (inactive). For the same compound, the GI50 is 15.6 µM (inactive) in assay [8]; 2.86 µM (inactive) in assay [10]; 46.2 µM (inactive) in assay [11]; 18.7 µM (inactive) in assay [12]; 14.9 µM (inactive) in assay [13]; 21 µM (inactive) in [15]. Besides, the GI50 was 8.38 µM (inactive) in assay [16], 27.7 µM (inactive) in assay [17], 13.9 µM (inactive) in [18] and 1.69 µM (inactive) in assay [19].
